Tested on: Bacillus subtilis
Assay type: cell-based

Structure (SMILES) | A: count of viable Bacillus colonies at 10 dilution | B: count of viable Bacillus colonies at 100 dilution | C: count of viable Bacillus colonies at 1000 dilution | D: count of viable Bacillus colonies at 10000 dilution | Log10 RED
O=[O+][O-] [ozone] | TNTCT | NTC | – | – | –
OO [hydrogen peroxide] | TNTCT | NTC | 210 | 12 | 0 Log10
